The data set in a line: physchem. To be noted: pH 7.4 buffer.

Results on 85 compounds are retold here after ChEMBL document CHEMBL3301361, “Experimental in vitro DMPK and physicochemical data on a set of publicly disclosed compounds”.

Structures are written as SMILES. ≈ marks a conversion by molar mass, not a printed value.

As to `CNC(=O)[C@H](Cc1ccccc1)NC(=O)[C@H](CC(C)C)[C@H](CSc1ccccc1)C(=O)NO`, the solubility (thermodynamic) was found to be 11.2 µM (≈ 5.28 µg/mL). Compound `O=C(c1ccc(F)cc1)C1CCN(C(=O)c2cc(F)cc(F)c2)CC1` came in with a solubility (thermodynamic) of 6 µM (≈ 2.08 µg/mL). The figure for `O=C(c1ccc(F)cc1)C1CCN(C(=O)c2ccc(OC(F)(F)F)cc2)CC1` is 11.5 µM (≈ 4.55 µg/mL). For the compound `O=C(c1ccc(F)cc1)C1CCN(C(=O)c2cccc(OC(F)(F)F)c2)CC1`, the thermodynamic solubility was determined as 11 µM (≈ 4.35 µg/mL). The figure for `O=C(c1ccc(F)cc1)C1CCN(C(=O)c2ccc(F)cc2Cl)CC1` is 14.5 µM (≈ 5.27 µg/mL). Turning to `CN(C)S(=O)(=O)n1c2ccccc2c2cc(NC(=O)CCc3ccncc3)ccc21`, the solubility (thermodynamic) was determined as 9.5 µM (≈ 4.01 µg/mL). Take `CN(C)CCSc1nc2ccc(Br)cc2cc1-c1ccccc1`: the solubility (thermodynamic) turned out to be 9.5 µM (≈ 3.68 µg/mL). As for `COc1cc2ncnc(Nc3ccc(Br)cc3F)c2cc1OC`, the figure is 6.8 µM (≈ 2.57 µg/mL). As for `COc1ccc(Cl)cc1NC(=O)c1cnccn1`, the figure is 12 µM (≈ 3.16 µg/mL); as for `Cc1ccc(C(=O)N2CCC(C(=O)c3c(C)cc(C)cc3C)CC2)cc1`, 9.3 µM (≈ 3.25 µg/mL). The compound `c1ccc(-c2nnc(-c3ccccc3)o2)cc1` yielded a thermodynamic solubility of 15.8 µM (≈ 3.51 µg/mL). The figure for `COc1ccc(NC(=O)c2cccn(CC=C(C)C)c2=O)cc1` is 7.2 µM (≈ 2.25 µg/mL). As for `Cc1ccc(-c2nnc(-c3ccccc3)o2)cc1`, the figure is 6.2 µM (≈ 1.46 µg/mL); as for `CCN1N=C(c2ccccc2)Cn2c1nc1ccccc12`, 6.9 µM (≈ 1.91 µg/mL); as for `O=C(c1ccccc1)C1CCN(C(=O)c2c(F)cccc2F)CC1`, 13.2 µM (≈ 4.35 µg/mL). The figure for `COC1=C(c2ccccc2)C(=O)c2ccccc2C1=O` is 8.1 µM (≈ 2.14 µg/mL); for `O=C(c1nnsc1S(=O)(=O)c1ccc(Cl)cc1)N1CCOCC1` it is 17 µM (≈ 6.36 µg/mL). As for `CCC(=O)Nc1c(C#N)c2nc3ccccc3nc2n1-c1ccccc1C`, the thermodynamic solubility came out at 13.5 µM (≈ 4.8 µg/mL).

The compound `O=S(=O)(Cc1cc(-c2ccccc2)no1)c1ccccc1` showed a thermodynamic solubility of 6.6 µM (≈ 1.98 µg/mL). As for `Oc1cc(-c2ccccc2)nc2ccc(Cl)cc12`, the figure is 5.9 µM (≈ 1.51 µg/mL); as for `O=C(NC1CCCC1)C1CCCN(S(=O)(=O)c2cccc3cccnc23)C1` (stereo not given), 8.7 µM (≈ 3.37 µg/mL). Regarding `CCOc1ccccc1C(=O)N1CCC(C(=O)c2ccc(F)cc2)CC1`, the thermodynamic solubility turned out to be 5.8 µM (≈ 2.06 µg/mL). The figure for `Cc1ccc(C)c(N(C)c2ccnc(Nc3cc(N4CCOCC4)cc(N4CCOCC4)c3)n2)c1` is 5.9 µM (≈ 2.8 µg/mL); for `COc1cccc(N(C)c2ccnc(Nc3cc(N4CCOCC4)cc(N4CCOCC4)c3)n2)n1` it is 15.5 µM (≈ 7.4 µg/mL); for `Cc1ccc(CO)cc1N(C)c1ccnc(Nc2cc(N3CCOCC3)cc(S(C)(=O)=O)c2)n1` it is 15.8 µM (≈ 7.64 µg/mL). The figure for `Cc1cc(F)ccc1CCC1CCN(S(=O)(=O)CC2(N(O)C=O)CCOCC2)CC1` is 13.8 µM (≈ 6.11 µg/mL); for `COc1cc(N2CCOCC2)ccc1Nc1ncc(Cl)c(-c2cnc3ccccn23)n1` it is 16.2 µM (≈ 7.08 µg/mL); for `COc1cc(N2CCN(C(C)=O)CC2)ccc1Nc1ncc(F)c(-c2cnc3ccccn23)n1` it is 14.5 µM (≈ 6.69 µg/mL). As for `N#Cc1c(C2CCCNC2)cc(-c2c(O)cccc2OCC2CC2)nc1N` (stereo not given), the figure is 8.1 µM (≈ 2.95 µg/mL); as for `C=CCN(C(=O)NCc1cccc(C)c1)C1CCN(CCC(c2ccccc2)c2ccccc2)CC1`, 9.1 µM (≈ 4.38 µg/mL); as for `COc1cc2ncnc(Nc3cc(NC(=O)c4ccccc4)ccc3Cl)c2cc1OC`, 10 µM (≈ 4.35 µg/mL). Compound `Cc1cc(C)c(N2C(=O)CC(Sc3ccccc3N)C2=O)c(C)c1` (stereo not given) came in with a solubility (thermodynamic) of 9.3 µM (≈ 3.17 µg/mL). The figure for `CCn1cc(NC(=O)Cc2ccc(Oc3ccnc4cc(OC)c(OC)cc34)cc2)cn1` is 10.7 µM (≈ 4.63 µg/mL); for `O=C(Nc1ccccc1)c1ccc2cccc(O)c2n1` it is 6.6 µM (≈ 1.74 µg/mL); for `Cc1nc(-c2ccc(CN3CCC(N(C)C(=O)Cc4ccc(-n5cnnn5)cc4)CC3)cc2)no1` it is 10.2 µM (≈ 4.82 µg/mL). `CN(C(=O)Cc1ccc(-n2cnnn2)cc1)C1CCN(Cc2nc3c(s2)CCCC3)CC1`: the thermodynamic solubility was 9.8 µM (≈ 4.43 µg/mL).

As for `CN(C(=O)Cc1ccc(-n2cnnn2)cc1)[C@H]1CCN(Cc2ccc(C(F)(F)F)cc2)C[C@H]1F`, the solubility (thermodynamic) was determined as 8.1 µM (≈ 3.86 µg/mL). The figure for `CN(C(=O)Cc1ccc(-n2cnnn2)cc1)[C@@H]1CCN(Cc2ccc(C(F)(F)F)cc2)C[C@@H]1F` is 16.2 µM (≈ 7.72 µg/mL).

`CN(C(=O)Cc1ccc(S(C)(=O)=O)cc1)[C@@H]1CCN(Cc2nc3ccccc3s2)C[C@@H]1F` displayed a thermodynamic solubility of 9.1 µM (≈ 4.33 µg/mL). `CCn1cc(NC(=O)Cc2ccc(Oc3ccnc4ccc(OC)cc34)cc2OC)cn1` showed a thermodynamic solubility of 7.1 µM (≈ 3.07 µg/mL).

For the compound `CCc1c[nH]nc1NC(=O)Cc1ccc(Oc2ccnc3cc(OC)ccc23)cc1OC`, the solubility (thermodynamic) came out at 7.4 µM (≈ 3.2 µg/mL). Turning to `CCc1cc(NC(=O)Cc2ccc(Oc3ccnc4cc(OC)c(OC)cc34)cc2OC)[nH]n1`, the thermodynamic solubility was determined as 11 µM (≈ 5.09 µg/mL). The figure for `CCc1cc(NC(=O)Cc2ccc(Oc3ccnc4cc(OC)ccc34)cc2OC)n[nH]1` is 8.5 µM (≈ 3.68 µg/mL); for `COc1cc(Oc2ccnc3cc(OC)c(OC)cc23)ccc1CC(=O)Nc1cn(C)nc1C` it is 8.9 µM (≈ 4.12 µg/mL); for `COc1ccc2c(Oc3ccc(CC(=O)Nc4cnn(C)c4C)c(OC)c3)ccnc2c1` it is 10.7 µM (≈ 4.63 µg/mL). As for `CCn1cc(NC(=O)Cc2ncc(Oc3ccnc4cc(OC)ccc34)cc2OC)cn1`, the figure is 17.4 µM (≈ 7.54 µg/mL). The figure for `COc1ccc2c(Oc3cnc(CC(=O)Nc4cn(C)nc4C)c(OC)c3)ccnc2c1` is 15.1 µM (≈ 6.55 µg/mL). For `CCn1cc(NC(=O)Cc2ccc(Oc3ccnc4cc(OC)c(OC)cc34)cn2)cn1`, the thermodynamic solubility worked out at 15.8 µM (≈ 6.85 µg/mL). As for `COC(=O)N[C@H](C(=O)N1CCC[C@H]1c1nc(-c2ccc(-c3ccc(-c4c[nH]c([C@@H]5CCCN5C(=O)[C@@H](NC(=O)OC)C(C)C)n4)cc3)cc2)c[nH]1)C(C)C`, the solubility (thermodynamic) was found to be 10.2 µM (≈ 7.54 µg/mL).

The compound `CS(=O)(=O)Cc1cc(N2CCOCC2)nc(-c2ccc3[nH]ccc3c2)n1` returned a solubility (thermodynamic) of 9.3 µM (≈ 3.46 µg/mL). In turn, `CS(=O)(=O)Cc1cc(N2CCOCC2)nc(-c2cccc3[nH]ccc23)n1` registered a thermodynamic solubility of 12.9 µM (≈ 4.8 µg/mL). On to `CS(=O)(=O)Cc1cc(N2CCOCC2)nc(-c2ccc(NS(C)(=O)=O)cc2)n1`, for which the solubility (thermodynamic) worked out at 11.2 µM (≈ 4.78 µg/mL). The figure for `CC(C)Oc1cc(O[C@@H](C)Cc2ccccc2)cc(C(=O)Nc2ccc(C(=O)O)cn2)c1` is 9.1 µM (≈ 3.95 µg/mL).

The compound `COc1cc2ncnc(Nc3cccc(Cl)c3F)c2cc1CN1CCCC[C@@H]1C(N)=O` gave a solubility (thermodynamic) of 10 µM (≈ 4.44 µg/mL). Regarding `CC(C)(C)OC(=O)N1C[C@@H]2CC[C@H]1CN2c1ncc(OCc2ccc(S(C)(=O)=O)cc2)cn1`, the thermodynamic solubility is 7.1 µM (≈ 3.37 µg/mL). The compound `CS(=O)(=O)C1(c2cc(N3CCOCC3)nc(-c3cccc(N)c3)n2)CC1` yielded a thermodynamic solubility of 13.2 µM (≈ 4.94 µg/mL).

In turn, `Oc1cc(-c2ccc3c(c2)OCO3)nc2ccccc12` yielded a solubility (thermodynamic) of 6.2 µM (≈ 1.64 µg/mL).

Compound `N#Cc1ccc(CN2CCN(c3ccc4nnc(C(F)(F)F)n4n3)CC2)cc1` registered a thermodynamic solubility of 11.5 µM (≈ 4.45 µg/mL). `C[C@H](COc1cccc2ncnc(Nc3ccc(OCc4ccccn4)c(Cl)c3)c12)N(C)C(=O)CO` returned a thermodynamic solubility of 14.1 µM (≈ 7.16 µg/mL). As for `Cc1cc(C)cc(-c2[nH]c3sc(C(C)(C)C(=O)N4C5CCC4CC5)cc3c2CCN2CCC(N3CCOCC3)CC2)c1`, the figure is 7.2 µM (≈ 4.24 µg/mL); as for `CNC(=O)[C@@H](C)Oc1cccc2ncnc(Nc3ccc4c(cnn4Cc4ccccn4)c3)c12`, 6 µM (≈ 2.72 µg/mL); as for `C[C@H](Oc1cccc2ncnc(Nc3ccc4c(cnn4Cc4cccc(F)c4)c3)c12)C(=O)N(C)C`, 8.1 µM (≈ 3.92 µg/mL). Regarding `C[C@@H](Oc1cccc2ncnc(Nc3ccc4c(cnn4Cc4cscn4)c3)c12)C(N)=O`, the solubility (thermodynamic) was 8.7 µM (≈ 3.88 µg/mL).

For `COCCN(C)C(=O)[C@@H](C)Oc1cccc2ncnc(Nc3ccc(Oc4ccc(C)nc4)c(C)c3)c12`, the solubility (thermodynamic) stood at 11.2 µM (≈ 5.62 µg/mL).

As for `CCc1cc(OCc2ccc(-c3ccccc3-c3nnn[nH]3)cc2)c2ccccc2n1`, the solubility (thermodynamic) was 7.8 µM (≈ 3.18 µg/mL).

Regarding `O=C(N1CCC(c2ccncc2)CC1)N1CCN(S(=O)(=O)c2ccc(Cl)cc2)CC1`, the solubility (thermodynamic) turned out to be 8.7 µM (≈ 3.91 µg/mL).

The compound `OC1(C#Cc2ccc(-c3ccccc3)cc2)CN2CCC1CC2` (stereo not given) came in with a solubility (thermodynamic) of 14.8 µM (≈ 4.49 µg/mL). As for `COc1cc2c(Nc3c(Cl)ccc4c3OCO4)ncnc2cc1OCc1ccnc(C#N)c1`, the figure is 10.2 µM (≈ 4.71 µg/mL). The figure for `COc1cc2ncnc(Nc3cccc(Cl)c3F)c2cc1CN(C)CC(N)=O` is 13.2 µM (≈ 5.33 µg/mL); for `OC1CCN(CCOc2n[nH]c3ncnc(Nc4ccc(OCc5ccccn5)c(Cl)c4)c23)CC1` it is 13.8 µM (≈ 6.84 µg/mL).

`Nc1ccccc1NC(=O)c1ccc(C2CCN(Cc3ccc(C(=O)NC4CC4)cc3)CC2)cc1` registered a thermodynamic solubility of 6.6 µM (≈ 3.09 µg/mL).

In the case of `CCCCC(CC)CNC(=O)c1ccc2c(c1)c(Cc1ccc(C(=O)NS(=O)(=O)c3ccccc3C)cc1OC)cn2C` (stereo not given), the solubility (thermodynamic) worked out at 6.5 µM (≈ 3.92 µg/mL). In turn, `C[C@@H](CN(C)C(=O)CO)Oc1cccc2ncnc(Nc3ccc(OCc4ccccn4)c(Cl)c3)c12` registered a thermodynamic solubility of 8.9 µM (≈ 4.52 µg/mL). The figure for `CN(C)C(=O)COc1cccc2ncnc(Nc3ccc4c(cnn4Cc4ccccn4)c3)c12` is 10.7 µM (≈ 4.85 µg/mL). The figure for `Cc1cc(Nc2ncnc3[nH]nc(OCCN4CCC(O)CC4)c23)ccc1OCc1cccc(F)c1` is 6.8 µM (≈ 3.35 µg/mL); for `CC(C)Oc1cc(O[C@H](C)Cc2ccccc2)cc(C(=O)Nc2ccc(C(=O)O)cn2)c1` it is 8.5 µM (≈ 3.69 µg/mL). `COc1ccccc1Oc1coc2cc(O)ccc2c1=O`: the thermodynamic solubility is 12.9 µM (≈ 3.67 µg/mL). The figure for `CCOC(=O)c1nn(-c2ccccc2)c(=O)c2c(N)scc12` is 6.2 µM (≈ 1.96 µg/mL).

Turning to `Cc1ncc(-c2ccnc(Nc3ccc(N4CCN(S(C)(=O)=O)CC4)cc3)n2)n1C(C)C`, the thermodynamic solubility came to 8.9 µM (≈ 4.05 µg/mL).

Consider `CS(=O)(=O)Nc1cccc(Nc2nccc(Nc3c(Cl)ccc4c3OCO4)n2)c1`, for which the thermodynamic solubility worked out at 7.2 µM (≈ 3.12 µg/mL).

In turn, `NC(=O)Nc1sc(-c2ccc(OC(F)(F)F)cc2)cc1C(N)=O` showed a thermodynamic solubility of 11 µM (≈ 3.8 µg/mL). Regarding `COc1cc2ncnc(Nc3ccc(F)c(Cl)c3)c2cc1CN(C)[C@H](C)C(N)=O`, the solubility (thermodynamic) was determined as 15.5 µM (≈ 6.48 µg/mL). As for `COc1cc(Nc2cc(Oc3ccc(C)nc3C)ccn2)cc(OC)c1OC`, the figure is 6.8 µM (≈ 2.59 µg/mL); as for `CC(=O)N(C1=C(NCCO)C(=O)c2ccccc2C1=O)c1cccc(Br)c1`, 11.7 µM (≈ 5.02 µg/mL).

The compound `NS(=O)(=O)c1ccc(Nc2nccc(-c3cnc4ccccn34)n2)cc1` returned a solubility (thermodynamic) of 6.5 µM (≈ 2.38 µg/mL).

A word on the solubility (thermodynamic): it is solubility found after equilibrating the solid with the medium.
